US10077261B2, “Imidazolin-5-one derivative useful as FASN inhibitors for the treatment of cancer” (Janssen Pharmaceutica NV, priority 2012, dated 2018)

How the values were obtained:
A2780 ovarian cells [1] = assay: A2780 ovarian cell proliferation assay in lipid reduced medium, with palmitate (MTT); type: cell-based; settings: Homo sapiens, A2780, 96 h; read-out: pIC50 A2780 Ovarian Cell, With Palmitate (converted)
Summary of the method: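 In this palmitate-supplemented format, compound dilutions (30 μM down to 0.01 μM) are added to cells in lipid-reduced serum with 25 μM palmitate, 0.2% fatty-acid-free BSA and 0.25% ethanol. After four days (96 h) MTT absorbance at 544 nm is recorded and fitted by minimum sum of squares.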

A2780 ovarian cells [2] = assay: A2780 ovarian cell proliferation assay in lipid reduced medium, without palmitate (MTT); type: cell-based; settings: Homo sapiens, A2780, 96 h; read-out: pIC50 A2780 Ovarian Cell, Without Palmitate (converted)
[3] = tested on: LNCaP-Vancouver prostate cells; assay: In vitro LNCaP Vancouver prostate cell proliferation assay in lipid reduced medium; type: cell-based; settings: read-out: pIC50 LNCaP_Vancouver prostate cell (converted)
[4] = tested on: PC-3M-Luc-C6 prostate cells; assay: In vitro PC-3M-Luc-C6 prostate cell proliferation assay in lipid reduced medium; type: cell-based; settings: 96 h, read-out: pIC50 PC-3M-Luc-C6 prostate cell (converted)
Experimental: PC-3M-Luc-C6 prostate cells were obtained from Xenogen Corporation. Cells were maintained in MEM supplemented with 10% Fetal Calf Serum (FCS, Hyclone), 2 mM glutamine, 1 mM sodium pyruvate, 1% BME vitamins (available from for example, Sigma Aldrich), 0.1 mM non Essential Amino Acid and 50 μg/ml Gentamicin. The cells were passaged twice a week.
The next day 10 μl test compound/DMSO diluted in medium was added (3E-5M, 1E-5M, 3E-6M, 1E-6M, 3E-7M, 1E-7M, 3E-8M, 1E-8M final concentration). Compounds were tested in duplicate. After 96 h incubation at 37° C., 5% CO2 25 μl ATP-glow mix was added. The plate was incubated for 30 min at 37° C. and luminescence was measured with the Envision.
Analysis: Determination of pIC50 Values
pIC50 values were calculated as follows.
where mLC and mHC are the means of the low control wells and high control wells on the plate, after manual exclusion of outliers. The relation between the % Controlmin values and concentration was fitted to a 4-parameter logistic curve using a non-linear least squares regression method to determine the pIC50 value. Outlying data points were excluded manually to get a correct fit. The pIC50 corresponds to −log 10(IC50), if the IC50 is expressed in molar units (http://www.ncbi.nlm.nih.gov/books/NBK91994). The IC50 parameter was always determined by non-linear regression, but one or more of the other parameters may have been held fixed on a relevant input value, such as 0 for the bottom values.

[5] = target: T1, hFASN enzyme (full length) (Homo sapiens, UniProt P49327); assay: Fatty Acid Synthase (FASN) inhibition scintillation proximity assay; type: biochemical; settings: for inhibition at 10 µM: read-out: Human FASN % inhibition @ 10 μM, 10 μM test compound
T1 construct: 10 μL hFASN enzyme (full length, 300 ng, purified in house); made in house
Summary of the method: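 Read-out relies on hydrophobic ³H-palmitate product, formed from ³H-acetyl-CoA and malonyl-CoA, binding streptavidin imaging beads, measured at 610±20 nm after at least 24 h. Full-length enzyme (300 ng) in phosphate buffer pH 7.5 with DTT; eight compound concentrations, 0.01–30 μM.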

T1 sequence (P49327 whole entry): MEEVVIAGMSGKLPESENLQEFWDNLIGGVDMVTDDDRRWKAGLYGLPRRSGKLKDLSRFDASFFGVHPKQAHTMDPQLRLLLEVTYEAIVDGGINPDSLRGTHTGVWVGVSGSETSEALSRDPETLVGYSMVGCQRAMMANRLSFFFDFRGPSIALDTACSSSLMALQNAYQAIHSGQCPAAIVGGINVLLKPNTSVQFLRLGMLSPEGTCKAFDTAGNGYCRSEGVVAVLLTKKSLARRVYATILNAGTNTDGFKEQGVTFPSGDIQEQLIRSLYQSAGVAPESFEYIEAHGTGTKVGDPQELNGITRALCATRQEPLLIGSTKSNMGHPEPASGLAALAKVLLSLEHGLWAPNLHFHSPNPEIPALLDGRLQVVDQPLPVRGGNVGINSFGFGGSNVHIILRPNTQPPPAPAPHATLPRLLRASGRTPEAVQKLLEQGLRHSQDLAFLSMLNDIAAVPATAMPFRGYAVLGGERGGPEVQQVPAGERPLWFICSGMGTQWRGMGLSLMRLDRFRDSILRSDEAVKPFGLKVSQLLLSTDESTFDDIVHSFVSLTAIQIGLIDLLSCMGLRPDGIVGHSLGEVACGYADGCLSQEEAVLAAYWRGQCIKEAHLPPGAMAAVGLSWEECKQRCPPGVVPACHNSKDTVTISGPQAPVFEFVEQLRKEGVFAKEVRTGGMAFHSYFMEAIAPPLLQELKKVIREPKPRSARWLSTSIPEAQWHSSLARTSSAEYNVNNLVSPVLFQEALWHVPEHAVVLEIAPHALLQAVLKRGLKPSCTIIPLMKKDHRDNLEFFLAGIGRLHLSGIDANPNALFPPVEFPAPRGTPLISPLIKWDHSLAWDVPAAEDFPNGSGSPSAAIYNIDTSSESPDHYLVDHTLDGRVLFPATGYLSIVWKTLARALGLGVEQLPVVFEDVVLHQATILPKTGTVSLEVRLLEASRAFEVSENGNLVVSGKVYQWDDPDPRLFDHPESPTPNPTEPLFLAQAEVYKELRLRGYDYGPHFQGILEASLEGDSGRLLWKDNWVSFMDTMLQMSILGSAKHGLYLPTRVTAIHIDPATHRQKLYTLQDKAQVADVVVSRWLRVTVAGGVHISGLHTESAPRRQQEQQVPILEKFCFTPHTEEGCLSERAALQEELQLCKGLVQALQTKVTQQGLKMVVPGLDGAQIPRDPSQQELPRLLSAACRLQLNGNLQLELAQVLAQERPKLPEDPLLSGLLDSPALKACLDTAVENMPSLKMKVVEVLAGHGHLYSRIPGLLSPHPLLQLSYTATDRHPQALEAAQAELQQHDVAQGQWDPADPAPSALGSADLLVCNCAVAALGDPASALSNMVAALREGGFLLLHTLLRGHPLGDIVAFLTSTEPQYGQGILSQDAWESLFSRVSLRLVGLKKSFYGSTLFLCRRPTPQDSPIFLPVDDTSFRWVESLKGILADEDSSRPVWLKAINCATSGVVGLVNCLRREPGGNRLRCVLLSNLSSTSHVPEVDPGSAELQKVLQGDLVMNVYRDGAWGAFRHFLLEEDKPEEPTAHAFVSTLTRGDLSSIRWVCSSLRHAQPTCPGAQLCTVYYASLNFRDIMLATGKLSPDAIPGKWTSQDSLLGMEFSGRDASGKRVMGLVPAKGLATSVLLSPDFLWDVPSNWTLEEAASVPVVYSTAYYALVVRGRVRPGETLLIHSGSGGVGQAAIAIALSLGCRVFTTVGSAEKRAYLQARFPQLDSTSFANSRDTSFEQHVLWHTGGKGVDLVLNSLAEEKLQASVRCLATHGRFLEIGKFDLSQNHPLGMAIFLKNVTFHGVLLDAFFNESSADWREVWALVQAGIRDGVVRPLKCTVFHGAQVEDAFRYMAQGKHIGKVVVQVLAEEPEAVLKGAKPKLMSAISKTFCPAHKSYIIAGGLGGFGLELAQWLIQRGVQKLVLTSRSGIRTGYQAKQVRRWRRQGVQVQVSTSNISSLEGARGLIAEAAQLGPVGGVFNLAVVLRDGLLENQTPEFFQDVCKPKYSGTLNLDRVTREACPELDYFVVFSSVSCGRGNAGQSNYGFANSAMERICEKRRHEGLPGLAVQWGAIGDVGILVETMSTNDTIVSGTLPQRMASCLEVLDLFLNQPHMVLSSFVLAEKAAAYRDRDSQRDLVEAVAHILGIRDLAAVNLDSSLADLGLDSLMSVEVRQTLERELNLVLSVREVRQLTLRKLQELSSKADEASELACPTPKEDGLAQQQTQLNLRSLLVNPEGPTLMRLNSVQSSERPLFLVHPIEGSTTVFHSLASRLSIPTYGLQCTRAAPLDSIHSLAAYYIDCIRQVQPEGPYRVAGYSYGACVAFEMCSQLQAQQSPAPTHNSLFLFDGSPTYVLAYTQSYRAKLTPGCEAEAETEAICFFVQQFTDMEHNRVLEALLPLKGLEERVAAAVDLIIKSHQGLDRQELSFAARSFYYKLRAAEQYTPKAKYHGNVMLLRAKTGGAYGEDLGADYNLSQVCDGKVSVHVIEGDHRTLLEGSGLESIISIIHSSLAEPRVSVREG

SMILES: Cn1ncc2cc(-c3ccc(C4=NC5(CC5)C(=O)N4CC4CN(C(=O)C5CC5)C4)cc3)ccc21 [compound 39, 6-{[1-(Cyclopropylcarbonyl)azetidin-3-yl]methyl}-5-[4-(1-methyl-1H-indazol-5-yl)phenyl]-4,6-diazaspiro[2.4]hept-4-en-7-one]
- IC50 (A2780 ovarian cells [1]): > 10000 nM
- IC50 (A2780 ovarian cells [2]): 331 nM
- IC50 [3]: 1050 nM
- IC50 [4]: 151 nM

SMILES: Cn1ncc2cc(-c3ccc(C4=NC5(CC5)C(=O)N4C[C@@H]4CCN(C(=O)C5CCO5)C4)cc3)ccc21 (stereo partly drawn) [compound 204, 5-(4-(1-methyl-1H-indazol-5-yl)phenyl)-6-(((3R)-1-(oxetane-2-carbonyl)pyrrolidin-3-yl)methyl)-4,6-diazaspiro[2.4]hept-4-en-7-one]
- inhibition at 10 µM [5]: 103%
- IC50 (A2780 ovarian cells [1]): > 10000 nM
- IC50 (A2780 ovarian cells [2]): ~40.7 nM
- IC50 [3]: 407 nM
- IC50 [4]: 51.3 nM

SMILES: Cc1cc(-c2ccc3c(cnn3C)c2)ccc1C1=NC2(CC2)C(=O)N1CC1CN(C(=O)C2(C)CC2)C1 [compound 207, 5-(2-methyl-4-(1-methyl-1H-indazol-5-yl)phenyl)-6-((1-(1-methylcyclopropanecarbonyl)azetidin-3-yl)methyl)-4,6-diazaspiro[2.4]hept-4-en-7-one]
- inhibition at 10 µM [5]: 101%
- IC50 (A2780 ovarian cells [1]): > 10000 nM
- IC50 (A2780 ovarian cells [2]): 60.3 nM
- IC50 [3]: 513 nM
- IC50 [4]: ~67.6 nM

SMILES: Cc1cc(-c2ccc3cc(F)ccc3c2)ccc1C1=NC2(CC2)C(=O)N1CC1CN(C(=O)C2CCO2)C1 (stereo not drawn) [compound 223, 5-(4-(6-fluoronaphthalen-2-yl)-2-methylphenyl)-6-((1-(oxetan-2-carbonyl)azetidin-3-yl)methyl)-4,6-diazaspiro[2.4]hept-4-en-7-one]
- inhibition at 10 µM [5]: 104%
- IC50 ([5]; read-out: Human FASN pIC50 (converted)): 53.7 nM
- IC50 (A2780 ovarian cells [1]): 3310 nM
- IC50 (A2780 ovarian cells [2]): ~20 nM
- IC50 [3]: 240 nM
- IC50 [4]: 60.3 nM

SMILES: O=C(C1CC1)N1CC(CN2C(=O)C3(CC3)N=C2c2ccc(-c3ccc4cc(F)ccc4n3)cc2F)C1 [compound 228, 6-((1-(cyclopropanecarbonyl)azetidin-3-yl)methyl)-5-(2-fluoro-4-(6-fluoroquinolin-2-yl)phenyl)-4,6-diazaspiro[2.4]hept-4-en-7-one]
- inhibition at 10 µM [5]: 103%
- IC50 (A2780 ovarian cells [1]): > 10000 nM
- IC50 (A2780 ovarian cells [2]): 18.2 nM
- IC50 [3]: 759 nM
- IC50 [4]: 97.7 nM

SMILES: O=C(C1CC1)N1CC[C@@H](CN2C(=O)C3(CC3)N=C2c2ccc(-c3nc4ccccc4s3)cc2F)C1 [compound 252, (R)-5-(4-(benzo[d]thiazol-2-yl)-2-fluorophenyl)-6-((1-(cyclopropanecarbonyl)pyrrolidin-3-yl)methyl)-4,6-diazaspiro[2.4]hept-4-en-7-one]
- IC50 (A2780 ovarian cells [1]): > 10000 nM
- IC50 (A2780 ovarian cells [2]): ~77.6 nM
- IC50 [3]: 251 nM
- IC50 [4]: 56.2 nM

SMILES: Cc1cc(-c2ccc3c(cnn3C)c2)ccc1C1=NC2(CC2)C(=O)N1C[C@@H]1CCN(C(=O)C2CC2)C1 [compound 262, (R)-6-((1-(cyclopropanecarbonyl)pyrrolidin-3-yl)methyl)-5-(2-methyl-4-(1-methyl-1H-indazol-5-yl)phenyl)-4,6-diazaspiro[2.4]hept-4-en-7-one]
- IC50 (A2780 ovarian cells [1]): 6030 nM
- IC50 (A2780 ovarian cells [2]): 77.6 nM
- IC50 [3]: 295 nM
- IC50 [4]: ~117 nM

SMILES: O=C(C1CC1)N1CC[C@@H](CN2C(=O)C3(CC3)N=C2c2ccc(-c3ccc4[nH]ncc4c3)cc2)C1 [compound 297, (R)-5-(4-(1H-indazol-5-yl)phenyl)-6-((1-(cyclopropanecarbonyl)pyrrolidin-3-yl)methyl)-4,6-diazaspiro[2.4]hept-4-en-7-one]
- IC50 (A2780 ovarian cells [1]): > 10000 nM
- IC50 (A2780 ovarian cells [2]): 25.1 nM
- IC50 [3]: 646 nM
- IC50 [4]: ~30.2 nM

SMILES: O=C(C1CC1)N1CC[C@@H](CN2C(=O)C3(CC3)N=C2c2ccc(-c3cccc4[nH]ncc34)cc2)C1 [compound 302]
- IC50 (A2780 ovarian cells [1]): > 10000 nM
- IC50 (A2780 ovarian cells [2]): 13.2 nM
- IC50 [3]: 437 nM
- IC50 [4]: 16.6 nM

SMILES: O=C(C1CC1)N1CC[C@@H](CN2C(=O)C3(CC3)N=C2c2ccc(-c3ccc4cccnc4c3)cc2)C1 [compound 309, (R)-6-((1-(cyclopropanecarbonyl)pyrrolidin-3-yl)methyl)-5-(4-(quinolin-7-yl)phenyl)-4,6-diazaspiro[2.4]hept-4-en-7-one]
- IC50 (A2780 ovarian cells [1]): > 10000 nM
- IC50 (A2780 ovarian cells [2]): 6.17 nM
- IC50 [3]: 31.6 nM
- IC50 [4]: 7.41 nM

SMILES: Cn1cnc2cc(-c3ccc(C4=NC5(CC5)C(=O)N4CC4CN(C(=O)C5CC5)C4)cc3)ccc21 [compound 343, 6-((1-(cyclopropanecarbonyl)azetidin-3-yl)mehtyl)-5-(4-(1-methyl-1H-benzo[d]imidazol-5-yl)phenyl)-4,6-diazaspiro[2.4]hept-4-en-7-one]
- inhibition at 10 µM [5]: 98%
- IC50 [3]: 240 nM
- IC50 [4]: 81.3 nM

SMILES: O=C(C1CC1)N1CC(CN2C(=O)C3(CC3)N=C2c2ccc(-c3ccc4ccccc4n3)cc2)C1 [compound 345, 6-((1-(cyclopropanecarbonyl)azetidin-3-yl)methyl)-5-(4-(quinolin-2-yl)phenyl)-4,6-diazaspiro[2.4]hept-4-en-7-one]
- inhibition at 10 µM [5]: 99%
- IC50 [3]: 1200 nM
- IC50 [4]: 562 nM

SMILES: O=C(C1CC1)N1CC[C@H](CN2C(=O)C3(CC3)N=C2c2ccc(-c3ccc4occc4c3)cc2)C1 [compound 409, 5-[4-(1-Benzofuran-5-yl)phenyl]-6-{[(3S)-1-(cyclopropylcarbonyl)pyrrolidin-3-yl]methyl}-4,6-diazaspiro[2.4]hept-4-en-7-one]
- IC50 (A2780 ovarian cells [1]): > 10000 nM
- IC50 (A2780 ovarian cells [2]): 2090 nM
- IC50 [3]: 2190 nM
- IC50 [4]: 1170 nM

SMILES: Cn1ncc2cc(-c3ccc(C4=NC5(CC5)C(=O)N4C[C@H]4CCN(C(=O)C5CC5)C4)cc3)ccc21 [compound 410, 6-{[(3S)-1-(Cyclopropylcarbonyl)pyrrolidin-3-yl]methyl}-5-[4-(1-methyl-1H-indazol-5-yl)phenyl]-4,6-diazaspiro[2.4]hept-4-en-7-one]
- IC50 (A2780 ovarian cells [1]): > 10000 nM
- IC50 (A2780 ovarian cells [2]): 537 nM
- IC50 [3]: 977 nM
- IC50 [4]: 447 nM

SMILES: Cc1cc(C2=NC3(CC3)C(=O)N2C[C@@H]2CCN(C(=O)C3CC3)C2)ccc1-c1ccc2c(cnn2C)c1 [compound 450, 6-{[(3R)-1-(Cyclopropylcarbonyl)pyrrolidin-3-yl]methyl}-5-[3-methyl-4-(1-methyl-1H-indazol-5-yl)phenyl]-4,6-diazaspiro[2.4]hept-4-en-7-one]
- IC50 (A2780 ovarian cells [1]): > 10000 nM
- IC50 (A2780 ovarian cells [2]): ~617 nM
- IC50 [3]: 2340 nM
- IC50 [4]: 794 nM

SMILES: O=C(C1CC1)N1CC[C@@H](CN2C(=O)C3(CC3)N=C2c2ccc(-c3ccc4ncccc4c3)cc2)C1 [compound 455, 6-{[(3R)-1-(Cyclopropylcarbonyl)pyrrolidin-3-yl]methyl}-5-(4-quinolin-6-ylphenyl)-4,6-diazaspiro[2.4]hept-4-en-7-one]
- IC50 (A2780 ovarian cells [1]): > 10000 nM
- IC50 (A2780 ovarian cells [2]): ~891 nM
- IC50 [3]: 2140 nM
- IC50 [4]: ~692 nM

SMILES: O=C(C1CC1)N1CC[C@@H](CN2C(=O)C3(CC3)N=C2c2ccc(-c3cnc4ccccc4c3)cc2)C1 [compound 474, 6-{[(3R)-1-(Cyclopropylcarbonyl)pyrrolidin-3-yl]methyl}-5-(4-quinolin-3-ylphenyl)-4,6-diazaspiro[2.4]hept-4-en-7-one]
- IC50 (A2780 ovarian cells [1]): > 10000 nM
- IC50 (A2780 ovarian cells [2]): 200 nM
- IC50 [3]: 1000 nM
- IC50 [4]: 708 nM

SMILES: O=C(C1CC1)N1CC[C@@H](CN2C(=O)C3(CC3)N=C2c2ccc(-c3n[nH]c4ccccc34)cc2)C1 [compound 528, 6-{[(3R)-1-(Cyclopropylcarbonyl)pyrrolidin-3-yl]methyl}-5-[4-(1H-indazol-3-yl)phenyl]-4,6-diazaspiro[2.4]hept-4-en-7-one]
- IC50 (A2780 ovarian cells [1]): > 10000 nM
- IC50 (A2780 ovarian cells [2]): ~398 nM
- IC50 [3]: 2340 nM
- IC50 [4]: 501 nM
